Measured values taken from US5834457A, “Method of modulating radical formation by mutant cuznsod enzymes” (The Regents of the University of California, priority 1996, dated 1998).

How the values were obtained:
[1] = Hydroxyl radical production from H2O2 by the enzymes or free copper, EPR of DMPO-OH adduct; format: biochemical; details: for hydroxyl radical production (double integration of DMPO-OH signal): 1.25 μM protein or 2.5 μM CuSO4, 45 mM DMPO, 30 mM H2O2, pH 7.4
Method: Hydroxyl radical formation by mutant and wild type CuZnSODs was determined by measuring the amount of adduct formed when the radical scavenging agent 5,5'-dimethyl-1-pyrroline N-oxide (DMPO) was added to the hydroxyl radical forming reaction. The amount of the DMPO-OH radical adduct formed was determined by measurement of the unique EPR spectra signals of the adduct.
30 mM hydrogen peroxide was injected to start the reaction. […] EPR spectra were recorded on a Bruker ER 200 D at room temperature, operated at 9.5 GHz with a modulation frequency of 100 KHz.
The samples were prepared and handled, and all measurements executed, in a strictly oxygen-free atmosphere, to prevent radical scavenging by molecular oxygen. Buffers were treated with Chelex 100 (Biorad) to eliminate the possibility of contamination by trace metals. […] An aqueous flat cell (Wilmad) was used to hold the samples.

[2] = tested on: CSM 14.1 cells expressing mutant CuZnSODs A4V, G37R, G41D, G85R; assay: Neural cell culture model of FALS: apoptosis/viability after serum withdrawal; format: cell-based, rat; details: DDC 25-100 μM, all four mutants
Method: (§1) The conditionally-immortalized rat nigral neural cell line CSM 14.1 (M. Durand, et al., Soc. Neurosci. Abs. 16:40 (1990); and L. T. Zhong, et al., Proc. Natl. Acad. Sci. U.S.A. 90:4533 (1993)) was transfected with vectors carrying wild type CuZnSOD or the mutant CuZnSODs A4V, G37R, G41D, or G85R.
(§2) Next the […] efficacy of DDC was tested. Temperature-sensitive nigral neural cells (SCM 14.1) were transfected with wild type and A4V, G37R, G85R, and G41D mutant CuZnSOD constructs by methods described previously (Rabizadeh (1995), supra). Following selection in puromycin (7 μg/ml), cells were plated onto 96-well plates.
(§3) This was calculated as follows:
(§4) viability=[Vm(x)-Vm(0)]/[Vc(0)-Vm(0)]
(§5) Standard errors were computed by the delta method for computing the asymptotic standard error for the estimate of a nonlinear function (D. Colquhoun, Lectures on Biostatistics (Clarendon Press, 1971) pp. 39-42).

[3] = tested on: CSM 14.1 cells overexpressing wild type CuZnSOD; assay: as above; format: cell-based, rat
Method: as §1, §2, §3, §4, §5

[4] = tested on: CSM 14.1 cells; assay: Toxicity of DDC in transfected neural cells, all groups; format: cell-based, rat; details: DDC 1 mM or greater
Method: as §1, §2

O=S(=O)([O-])[O-].[Cu+2] [CuSO4]
hydroxyl radical production (double integration of DMPO-OH signal) [1]: 1.9 µM

CuZnSOD mutant G93A: FALS-associated mutant human CuZnSOD G93A, recombinant, expressed in yeast
hydroxyl radical production (double integration of DMPO-OH signal) [1]: 6.5 µM

CCN(CC)C(=S)S [DDC, Diethyldithiocarbamate]
inhibition of apoptosis induced by mutant CuZnSODs [2]: 30-70%
effect on viability ([3]; DDC 100 μM, 60 hours, serum-free media): no significant effect
effect on cell viability ([3]; DDC 500 μM): decreased the viability
effect on apoptosis ([3]; DDC 25-100 μM, serum withdrawal): no effect
toxicity in all groups [4]: toxic

wild type CuZnSOD: recombinant human wild type copper-zinc superoxide dismutase expressed in Saccharomyces cerevisiae
hydroxyl radical production (double integration of DMPO-OH signal) [1]: 3.2 µM

CuZnSOD mutant A4V: FALS-associated mutant human CuZnSOD A4V, recombinant, expressed in yeast
hydroxyl radical production (double integration of DMPO-OH signal) [1]: 15.6 µM
DMPO-OH signal relative to the wild type CuZnSOD signal ([1]; fully metallated enzyme, mean ± spread): 3.0±1.1 times
range of DMPO-OH signal relative to the wild type CuZnSOD signal ([1]; fully metallated enzyme, range over experiments): 2.1-5.7 times
